{"source": "paper PMC4269415", "about": "“Replication Attempt: “Effect of BMAP-28 Antimicrobial Peptides on Leishmania Major Promastigote and Amastigote Growth: Role of Leishmanolysin in Parasite Survival”” (PLoS ONE, 2014)", "key": {"[1]": {"test_system": "Leishmania major promastigotes", "settings": "4 h, % of untreated control, determined from bar graph Fig. 1A, ref Lynn et al. [5], cited from earlier work", "description": "Table 1 Promastigote viability assay of Leishmania major when treated with 0.5 µM or 2 µM BMAP-28 variants. | column: % Viability (mean) || This study describes an attempt to replicate experiments from the paper “Effect of BMAP-28 Antimicrobial Peptides on Leishmania major Promastigote and Amastigote Growth: Role of Leishmanolysin in Parasite Survival,” which was submitted to the Reproducibility Initiative for independent validation. The cathelicidin bovine myeloid antimicrobial peptide 28 (BMAP-28) and its isomers were previously shown to have potent antiparasitic activity against Leishmania major."}, "[2]": {"test_system": "Leishmania major promastigotes (strain MHOM/SN/74/SD)", "format": "cell-based", "settings": "for % Viability (mean), replication: % of untreated control, calculated from the dose response curve; for % Viability (mean), combined original and replication: meta-analysis combining original and replication studies; for d Effect Size (Cohen's d), combined: original and replication combined", "description": "The promastigote viability assays were conducted by the Anti-Infectives Screening Core Facility at New York University School of Medicine (https://www.scienceexchange.com/facilities/anti-infectives-screening-and-insectary-core-facilities-nyu). All assays were performed by investigators blinded to the reagents under study. 500 µM stocks of peptides were made by resuspending 4 mg of each peptide (M.W. 3131.92) in 2.554 mL of distilled sterile water. Each peptide was tested in triplicate three independent times at 50 µM, 25 µM, 12.5 µM, 6.25 µM, 3.125 µM, 1.5625 µM, 0.78125 µM, and 0.390625 µM. L. major strain MHOM/SN/74/SD (ATCC, PRA-384) was used in these studies. These cells were routinely cultured at 26°C in M-199 medium (Gibco, Grand Island, NY), supplemented with 10% heat inactivated fetal calf serum (Hyclone, Logan) and Pen/Strep (Gibco, Grand Island, NY). Mid-log phase promastigotes at concentrations of 5×10^6 per well were seeded in 96-well tissue culture plates. Heat-killed parasites, prepared by incubation at 99°C for 30 minutes, served as positive controls for the viability assays. Peptides were incubated with the cells for 4 hours at 26°C. A 20 µL volume of PrestoBlue (Life Technologies, Carlsbad, CA) was added to each well and incubated at 37°C for 3 hours. Fluorescence at excitation 530 nm and 590 nm emission wavelengths was measured using a plate reader (VICTOR, Perkin Elmer, US). Background fluorescence from media alone controls was subtracted from each reading and promastigote viability was expressed as a percentage of the untreated control.\nAn independent-samples t-test was conducted to compare promastigote viability in peptide treated and untreated conditions. A Fisher combined probability test was used to combine the original and replication studies values into a single combined study value for each peptide and peptide concentration. To provide a standardized measure of the effect we used cohen's d."}, "[3]": {"test_system": "Leishmania major promastigotes", "assay": "Promastigote viability assay of the original study (Fig. 1A of Lynn et al.)", "format": "cell-based", "settings": "from data of ref Lynn et al. [5]"}, "[4]": {"test_system": "mammalian epithelial cells and monocytes", "settings": "cited from earlier work"}, "[5]": {"settings": "0.5 µM peptide, 4 h, three biological replicates"}, "[6]": {"settings": "2 µM peptide, 4 h, three biological replicates"}}, "note": "Values joined by “and” are separate entries in the source; they are usually repeats but may differ in a detail not shown here. Equal values may be shown once. Read-outs that look alike come from different tables or passages of the source. Square brackets hold non-standard residues; d marks the D form. Ends that are not written are not given here. Peptide text beside a SMILES is read from it.", "data": [{"compound": "CC[C@@H](C)[C@@H](NC(=O)[C@H]1CCCN1C(=O)CNC(=O)[C@@H](Cc1ccc(O)cc1)NC(=O)[C@@H](CCCCN)NC(=O)[C@@H](CCCCN)NC(=O)[C@@H](Cc1c[nH]c2ccccc12)NC(=O)[C@@H](C)NC(=O)[C@@H](CCCNC(=N)N)NC(=O)[C@@H](CC(C)C)NC(=O)[C@H](NC(=O)[C@@H](CCCCN)NC(=O)[C@@H](CCCNC(=N)N)NC(=O)CNC(=O)[C@@H](CC(C)C)NC(=O)[C@@H](CO)NC(=O)[C@@H](CCCNC(=N)N)NC(=O)[C@@H](CC(C)C)NC(=O)CNC(=O)CN)[C@H](C)CC)C(=O)N[C@@H](C(=O)N[C@@H](C(=O)N1CCC[C@@H]1C(=O)N[C@@H](C(=O)N[C@@H](C(=O)N[C@H](CCCNC(=N)N)C(=O)N[C@@H](C(=O)NCC(=O)O)[C@H](C)CC)[C@H](C)CC)[C@H](C)CC)C(C)C)[C@H](C)CC", "note": "[D-BMAP-28] (H-GG[dL][dR][dS][dL]G[dR][dK][dI][dL][dR][dA][dW][dK][dK][dY]G[dP][dI][dI][dV][dP][dI][dI][dR][dI]G-OH; N-terminus assumed)", "values": [{"measurement": "% Viability (mean), original study", "setting": "[1]; 0.5 µM peptide", "value": 68.75, "unit": "%"}, {"measurement": "% Viability (mean), original study", "setting": "[1]; 2 µM peptide", "value": "6% and 5.50%"}, {"measurement": "% Viability (mean), replication", "setting": "[2]; [5]", "value": 92.40, "unit": "%"}, {"measurement": "% Viability (mean), combined original and replication", "setting": "[2]; 0.5 µM peptide", "value": "not significantly modified"}, {"measurement": "d Effect Size (Cohen's d), combined", "setting": "[2]; 2 µM peptide vs untreated", "value": 16.67}, {"measurement": "% Viability (mean), replication", "setting": "[2]; [6]", "value": 73.26, "unit": "%"}, {"measurement": "IC50", "setting": "[2]; 4 h", "value": 3.55, "unit": "µM"}, {"measurement": "IC90", "setting": "[2]; 4 h", "value": 9.85, "unit": "µM"}, {"measurement": "d Effect Size (Cohen's d), original study", "setting": "[3]; 0.5 µM peptide vs untreated", "value": 2.55}, {"measurement": "d Effect Size (Cohen's d), original study", "setting": "[3]; 2 µM peptide vs untreated", "value": 37.8}]}, {"compound": "CC[C@@H](C)[C@@H](NC(=O)CN)C(=O)N[C@H](CCCNC(=N)N)C(=O)N[C@@H](C(=O)N[C@@H](C(=O)N1CCC[C@@H]1C(=O)N[C@@H](C(=O)N[C@@H](C(=O)N[C@@H](C(=O)N1CCC[C@@H]1C(=O)NCC(=O)N[C@H](Cc1ccc(O)cc1)C(=O)N[C@H](CCCCN)C(=O)N[C@H](CCCCN)C(=O)N[C@H](Cc1c[nH]c2ccccc12)C(=O)N[C@H](C)C(=O)N[C@H](CCCNC(=N)N)C(=O)N[C@H](CC(C)C)C(=O)N[C@@H](C(=O)N[C@H](CCCCN)C(=O)N[C@H](CCCNC(=N)N)C(=O)NCC(=O)N[C@H](CC(C)C)C(=O)N[C@H](CO)C(=O)N[C@H](CCCNC(=N)N)C(=O)N[C@H](CC(C)C)C(=O)NCC(=O)NCC(=O)O)[C@H](C)CC)[C@H](C)CC)[C@H](C)CC)C(C)C)[C@H](C)CC)[C@H](C)CC", "note": "[RI-BMAP-28] (H-G[dI][dR][dI][dI][dP][dV][dI][dI][dP]G[dY][dK][dK][dW][dA][dR][dL][dI][dK][dR]G[dL][dS][dR][dL]GG-OH; N-terminus assumed)", "values": [{"measurement": "% Viability (mean), original study", "setting": "[1]; 0.5 µM peptide", "value": 103.00, "unit": "%"}, {"measurement": "% Viability (mean), original study", "setting": "[1]; 2 µM peptide", "value": "18% and 17.50%"}, {"measurement": "toxicity to mammalian epithelial cells and monocytes (in words)", "setting": "[4]", "value": "limited toxicity"}, {"measurement": "% Viability (mean), replication", "setting": "[2]; [5]", "value": 94.64, "unit": "%"}, {"measurement": "% Viability (mean), combined original and replication", "setting": "[2]; 0.5 µM peptide", "value": "not significantly modified"}, {"measurement": "d Effect Size (Cohen's d), combined", "setting": "[2]; 2 µM peptide vs untreated", "value": 6.31}, {"measurement": "% Viability (mean), replication", "setting": "[2]; [6]", "value": 76.64, "unit": "%"}, {"measurement": "IC50", "setting": "[2]; 4 h", "value": 4.55, "unit": "µM"}, {"measurement": "IC90", "setting": "[2]; 4 h", "value": 20, "unit": "µM"}, {"measurement": "d Effect Size (Cohen's d), original study", "setting": "[3]; 0.5 µM peptide vs untreated", "value": "−1.20"}, {"measurement": "d Effect Size (Cohen's d), original study", "setting": "[3]; 2 µM peptide vs untreated", "value": 6.88}]}, {"compound": "GGLRSLGRKILRAWKKYGPIIVPIIRI-NH2 [L-BMAP-28-NH2, amidated L-BMAP-28 peptide]", "values": [{"measurement": "d Effect Size (Cohen's d), replication", "setting": "[2]; 0.5 µM peptide vs untreated", "value": 0.62}, {"measurement": "d Effect Size (Cohen's d), combined", "setting": "[2]; 0.5 µM peptide vs untreated", "value": 0.11}, {"measurement": "% Viability (mean), replication", "setting": "[2]; [5]", "value": 95.55, "unit": "%"}, {"measurement": "% Viability (mean), combined original and replication", "setting": "[2]; 0.5 µM peptide", "value": 99.40, "unit": "%"}, {"measurement": "d Effect Size (Cohen's d), replication", "setting": "[2]; 2 µM peptide vs untreated", "value": 0.81}, {"measurement": "d Effect Size (Cohen's d), combined", "setting": "[2]; 2 µM peptide vs untreated", "value": 2.65}, {"measurement": "% Viability (mean), replication", "setting": "[2]; [6]", "value": 94.15, "unit": "%"}, {"measurement": "% Viability (mean), combined original and replication", "setting": "[2]; 2 µM peptide", "value": 75.45, "unit": "%"}, {"measurement": "IC50", "setting": "[2]; 4 h at 26°C, PrestoBlue fluorescence, dose-response 0.39-50 µM, three biological replicates in triplicate, read-out: IC50, promastigote viability", "value": 5.83, "unit": "µM"}, {"measurement": "IC90", "setting": "[2]; 4 h at 26°C, PrestoBlue fluorescence, dose-response 0.39-50 µM, three biological replicates, read-out: IC90, promastigote viability", "value": 10.2, "unit": "µM"}]}, {"compound": "GGLRSLGRKILRAWKKYGPIIVPIIRIG [L-BMAP-28]", "values": [{"measurement": "IC50", "setting": "[2]; 4 h", "value": 17.1, "unit": "µM"}, {"measurement": "IC90", "setting": "[2]; 4 h", "value": 25.2, "unit": "µM"}]}]}
